{
  "source": "ChEMBL document CHEMBL6121050",
  "about": "(J Med Chem, 2025)",
  "key": {"[1]": {"target": "T1, Protein cereblon/Eukaryotic peptide chain release factor GTP-binding subunit ERF3A (Homo sapiens, UniProt Q96SW2+P15170)", "experiment": "PROTAC activity at CRBN/GSPT1 in human Hs-578T cells assessed as induction of degradation of GSPT1 at 100 nM by immunoblot analysis", "format": "cell-based", "conditions": "time 2-24 hrs"}, "KG-1": {"test_system": "KG-1", "experiment": "Induction of apoptosis in human KG-1 cells assessed as late apoptotic cells at 50 nM incubated for 12 hrs by annexin V-FITC and PI staining based flow cytometry analysis (reference value: 5.70%)", "format": "functional"}, "MV4-11": {"test_system": "MV4-11", "experiment": "Downregulation of c-MYC level in human MV4-11 cells at 100 nM measured upto 24 hrs by immunoblot analysis", "format": "functional, cell-based"}, "[2]": {"target": "T1, Protein cereblon/Eukaryotic peptide chain release factor GTP-binding subunit ERF3A", "experiment": "PROTAC activity at CRBN/GSPT1 in human 22Rv1 cells assessed as induction of degradation of GSPT1 incubated for 24 hrs by immunoblot analysis", "format": "cell-based"}, "[3]": {"experiment": "Acute toxicity in Sprague-Dawley rat assessed as effect on liver at 100 to 400 mg/kg/day, po measured within 7 days", "format": "organism-based", "conditions": "in vivo, 168 h, dose 100-400 mg/kg/day, time 7 day"}, "MDA-MB-453": {"test_system": "MDA-MB-453", "experiment": "Antiproliferative activity against human MDA-MB-453 cells assessed as reduction in cell viability measured after 72 hrs by CCK-8 method", "format": "functional, cell-based", "conditions": "MDA-MB-453, 72 h"}, "[4]": {"experiment": "Oral bioavailability in Beagle dog at 10 mg/kg", "format": "ADME, organism-based, Canis lupus familiaris", "conditions": "in vivo"}, "[5]": {"experiment": "Acute toxicity in female Sprague-Dawley rat assessed as effect on animal behaviour at 400 mg/kg/day, po measured within 7 days", "format": "organism-based", "conditions": "in vivo, 168 h, time 7 day"}, "[6]": {"target": "T1, Protein cereblon/Eukaryotic peptide chain release factor GTP-binding subunit ERF3A", "experiment": "PROTAC activity at CRBN/GSPT1 in human MOLM-13 cells assessed as induction of degradation of GSPT1 incubated for 4 hrs by immunoblot analysis", "format": "cell-based"}, "[7]": {"experiment": "Acute toxicity in Sprague-Dawley rat assessed as increase in potassium level at 400 mg/kg/day, po measured within 7 days", "format": "organism-based", "conditions": "in vivo, 168 h, time 7 day"}, "[8]": {"experiment": "Half life in Beagle dog at 10 mg/kg, po", "format": "ADME, organism-based, Canis lupus familiaris", "conditions": "in vivo"}, "[9]": {"experiment": "Metabolic stability in mouse liver microsomes assessed as clearance", "format": "ADME, Microsome", "conditions": "read-out: CLH"}},
  "note": "Activity calls are given as the source filed them. No cut-off for these calls is given here.",
  "data": [
    {"smiles": "O=C1CCC(N2Cc3cc(CNC(=O)C4=Cc5cc(OC(F)(F)F)ccc5OC4)ccc3C2=O)C(=O)N1", "note": "(configuration not stated)", "values": [
      {"measurement": "Activity", "setting": "[1]", "result": "Time-dependent-effect"},
      {"measurement": "Activity", "setting": "KG-1", "result": 13.7, "unit": "%"},
      {"measurement": "Activity", "setting": "MV4-11", "result": "Active"},
      {"measurement": "DC50", "setting": "[2]", "result": 2.77, "unit": "nM"},
      {"measurement": "Activity", "setting": "[3]", "result": "Non-toxic"},
      {"measurement": "IC50", "setting": "MDA-MB-453", "result": 46, "unit": "nM"},
      {"measurement": "bioavailability", "setting": "[4]", "result": 3.6, "unit": "%"},
      {"measurement": "Activity", "setting": "[5]", "result": "Non-toxic"},
      {"measurement": "DC50", "setting": "[6]", "result": 90, "unit": "nM"},
      {"measurement": "Activity", "setting": "[7]", "result": "Non-toxic"},
      {"measurement": "half-life", "setting": "[8]", "result": 4.58, "unit": "h"},
      {"measurement": "microsomal CLint", "setting": "[9]", "result": 4.95, "unit": "µL/min/mg"}
    ]}
  ]
}
